Assay: molar heat capacity at constant pressure
Settings: 101.33 kPa, Small (less than 1 g) adiabatic calorimetry

CCCCn1cc[n+](C)c1.F[B-](F)(F)F [1-butyl-3-methylimidazolium tetrafluoroborate]
Settings | molar heat capacity at constant pressure [J/K/mol]
5 K, Glass | 1.47
5.16 K, Glass | 1.62
5.39 K, Glass | 1.822
5.67 K, Glass | 2.094
5.96 K, Glass | 2.397
6.28 K, Glass | 2.762
6.64 K, Glass | 3.192
7 K, Glass | 3.657
7.36 K, Glass | 4.172
7.73 K, Glass | 4.709
8.11 K, Glass | 5.283
8.49 K, Glass | 5.896
8.87 K, Glass | 6.54
9.26 K, Glass | 7.211
9.64 K, Glass | 7.915
10 K, Glass | 8.59
10.03 K, Glass | 8.641
10.52 K, Glass | 9.597
11.13 K, Glass | 10.83
11.75 K, Glass | 12.13
12.36 K, Glass | 13.44
12.97 K, Glass | 14.81
13.59 K, Glass | 16.22
14.22 K, Glass | 17.7
14.85 K, Glass | 19.2
15 K, Glass | 19.58
15.58 K, Glass | 20.98
16.44 K, Glass | 23.16
17.29 K, Glass | 25.28
18.15 K, Glass | 27.41
19.01 K, Glass | 29.55
19.88 K, Glass | 31.75
20 K, Glass | 32.08
21.08 K, Glass | 34.8
22.63 K, Glass | 38.75
24.2 K, Glass | 42.72
25 K, Glass | 44.7
25.76 K, Glass | 46.64
27.21 K, Glass | 50.17
28.7 K, Glass | 53.74
30 K, Glass | 56.8
30.28 K, Glass | 57.41
32.02 K, Glass | 61.38
33.93 K, Glass | 65.51
35 K, Glass | 67.76
35.84 K, Glass | 69.47
37.75 K, Glass | 73.26
39.66 K, Glass | 76.94
40 K, Glass | 77.68
41.67 K, Glass | 80.75
43.78 K, Glass | 84.66
45 K, Glass | 86.86
45.89 K, Glass | 88.43
48 K, Glass | 92.13
50 K, Glass | 95.33
50.12 K, Glass | 95.61
52.24 K, Glass | 99
54.36 K, Glass | 102.2
56.48 K, Glass | 105.3
58.61 K, Glass | 108.4
60 K, Glass | 110.5
60.75 K, Glass | 111.5
62.88 K, Glass | 114.5
65.01 K, Glass | 117.4
67.14 K, Glass | 120.3
69.28 K, Glass | 123.1
70 K, Glass | 124.2
71.52 K, Glass | 126
73.86 K, Glass | 129.1
76.21 K, Glass | 132.1
78.57 K, Glass | 135.1
78.59 K, Glass | 135
80 K, Glass | 136.7
80.92 K, Glass | 137.8
81.08 K, Glass | 138.2
83.28 K, Glass | 140.7
83.48 K, Glass | 140.7
85.56 K, Glass | 143.1
85.91 K, Glass | 143.3
88.1 K, Glass | 145.9
88.36 K, Glass | 146.1
90 K, Glass | 148.1
90.56 K, Glass | 148.7
90.83 K, Glass | 148.8
93.04 K, Glass | 151.5
93.31 K, Glass | 151.6
95.54 K, Glass | 154.3
95.81 K, Glass | 154.3
98.06 K, Glass | 156.9
98.33 K, Glass | 156.9
100 K, Glass | 158.7
100.58 K, Glass | 159.4
100.87 K, Glass | 159.6
103.12 K, Glass | 162
103.41 K, Glass | 162.3
105.68 K, Glass | 164.7
105.97 K, Glass | 164.9
108.24 K, Glass | 167.2
108.53 K, Glass | 167.4
110 K, Glass | 169
110.81 K, Glass | 169.8
111.11 K, Glass | 170.1
113.39 K, Glass | 172.7
113.69 K, Glass | 172.7
115.97 K, Glass | 175.1
116.27 K, Glass | 175.4
118.56 K, Glass | 177.8
118.87 K, Glass | 178
120 K, Glass | 179.2
121.16 K, Glass | 180.5
121.47 K, Glass | 180.7
123.76 K, Glass | 183.1
124.08 K, Glass | 183.2
126.37 K, Glass | 185.5
126.68 K, Glass | 185.8
128.98 K, Glass | 188.1
129.3 K, Glass | 188.4
130 K, Glass | 189.1
131.59 K, Glass | 190.7
131.91 K, Glass | 191
133.42 K, Glass | 192.4
134.2 K, Glass | 193.3
134.53 K, Glass | 193.6
136.1 K, Glass | 195
136.82 K, Glass | 195.9
137.15 K, Glass | 196.2
138.71 K, Glass | 197.7
139.43 K, Glass | 198.3
139.77 K, Glass | 198.7
140 K, Glass | 198.9
141.33 K, Glass | 200.2
142.05 K, Glass | 201.1
142.38 K, Glass | 201.3
143.94 K, Glass | 202.8
144.67 K, Glass | 203.6
145 K, Glass | 203.9
146.55 K, Glass | 205.4
147.29 K, Glass | 206.3
147.63 K, Glass | 206.5
149.17 K, Glass | 208
149.9 K, Glass | 209.1
150 K, Glass | 208.9
150.24 K, Glass | 209.1
151.78 K, Glass | 210.6
152.52 K, Glass | 211.6
152.86 K, Glass | 211.8
154.39 K, Glass | 213.3
155.13 K, Glass | 214.2
155.48 K, Glass | 214.4
157 K, Glass | 216
157.74 K, Glass | 216.9
158.09 K, Glass | 217.2
159.61 K, Glass | 218.7
160 K, Glass | 219.3
160.35 K, Glass | 219.7
160.71 K, Glass | 219.9
162.21 K, Glass | 221.6
162.96 K, Glass | 222.4
163.32 K, Glass | 222.8
164.8 K, Glass | 224.5
165.57 K, Glass | 225.6
165.93 K, Glass | 225.7
167.4 K, Glass | 227.5
168.19 K, Glass | 228.6
168.53 K, Glass | 228.9
169.99 K, Glass | 230.8
170 K, Glass | 230.8
170.79 K, Glass | 232
171.13 K, Glass | 232.5
172.58 K, Glass | 234.6
173.37 K, Glass | 236
173.73 K, Glass | 236.7
175.18 K, Glass | 239.5
175.96 K, Glass | 241.5
176.31 K, Glass | 242.4
177.73 K, Glass | 247
178.51 K, Glass | 249.7
178.86 K, Glass | 251.9
180 K, Glass | 260.4
180.22 K, Glass | 262.1
180.97 K, Glass | 268.6
181.29 K, Liquid | 276.1
182.48 K, Liquid | 309.1
183.17 K, Liquid | 322.3
183.45 K, Liquid | 329.7
184.59 K, Liquid | 329.2
185.3 K, Liquid | 329.5
185.6 K, Liquid | 330
186.77 K, Liquid | 331
187.48 K, Liquid | 331.6
187.79 K, Liquid | 331.2
188.95 K, Liquid | 331.4
189.98 K, Liquid | 331.5
190 K, Liquid | 331.5
191.13 K, Liquid | 331.6
192.17 K, Liquid | 331.7
193.32 K, Liquid | 331.9
194.37 K, Liquid | 332
195.51 K, Liquid | 332.2
196.58 K, Liquid | 332.3
197.71 K, Liquid | 332.5
198.79 K, Liquid | 332.6
199.91 K, Liquid | 332.8
200 K, Liquid | 333
202.13 K, Liquid | 333.2
204.34 K, Liquid | 333.6
206.55 K, Liquid | 334
208.77 K, Liquid | 334.5
210 K, Liquid | 335.1
210.99 K, Liquid | 334.9
213.22 K, Liquid | 335.4
215.44 K, Liquid | 335.9
220 K, Liquid | 337.5
230 K, Liquid | 340.4
240 K, Liquid | 343.6
250 K, Liquid | 347.2
260 K, Liquid | 350.9
263.82 K, Liquid | 351.8
266.12 K, Liquid | 352.8
268.4 K, Liquid | 353.7
270 K, Liquid | 354.9
270.68 K, Liquid | 354.6
272.95 K, Liquid | 355.5
275.23 K, Liquid | 356.5
277.5 K, Liquid | 357.6
279.78 K, Liquid | 358.5
280 K, Liquid | 359
282.05 K, Liquid | 359.5
284.33 K, Liquid | 360.3
286.6 K, Liquid | 361.3
288.87 K, Liquid | 362.4
290 K, Liquid | 363.2
291.14 K, Liquid | 363.3
293.42 K, Liquid | 364.3
295.69 K, Liquid | 365.2
297.95 K, Liquid | 366.4
298.15 K, Liquid | 366.7
300 K, Liquid | 367.6
300.22 K, Liquid | 367.4
302.49 K, Liquid | 368.5
304.75 K, Liquid | 369.6
307.02 K, Liquid | 370.7
309.28 K, Liquid | 371.7
310 K, Liquid | 372.3
311.54 K, Liquid | 372.7
313.8 K, Liquid | 373.8
316.06 K, Liquid | 375
318.32 K, Liquid | 376.1
320 K, Liquid | 377
320.58 K, Liquid | 377
322.83 K, Liquid | 378
325.09 K, Liquid | 379.3
327.34 K, Liquid | 380.1
329.59 K, Liquid | 381.1
330 K, Liquid | 381.7
331.84 K, Liquid | 382.2
334.09 K, Liquid | 383.3
336.34 K, Liquid | 384.3
338.58 K, Liquid | 385.6
340 K, Liquid | 386.4
340.83 K, Liquid | 386.7
343.08 K, Liquid | 387.6
345.32 K, Liquid | 388.7
347.57 K, Liquid | 389.7
349.81 K, Liquid | 390.7
350 K, Liquid | 391.1
352.05 K, Liquid | 391.7
354.29 K, Liquid | 392.8
356.53 K, Liquid | 393.9
358.76 K, Liquid | 394.9
360 K, Liquid | 395.9
361 K, Liquid | 395.8
363.23 K, Liquid | 397.1
365.46 K, Liquid | 398
367.7 K, Liquid | 399
370 K, Liquid | 400.6

— the NIST ThermoML archive (doi:10.1016/j.tca.2015.01.022)
